Several values for one entry are separate records, joined by “and”; a condition that tells them apart may be missing. Equal entries are not always repeated.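 Compound exposure: 48 hours, 5 concentrations, 96-well plates. The concentration for 50% growth inhibition is given as GI50. TGI: concentration producing complete growth inhibition.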
Columns and labels:
Assay in all cases: NCI-60 cell line screen, 48 h
[1] = system: HS 578T breast
[2] = system: UACC-257 melanoma
[3] = system: SNB-19 CNS
[4] = system: BT-549 breast
[5] = system: SK-MEL-28 melanoma
[6] = system: LOX IMVI melanoma
[7] = system: NCI-H23 lung
[8] = system: OVCAR-8 ovarian
[9] = system: UACC-62 melanoma
[10] = system: A498 renal

| Structure (SMILES) | TGI [1] | TGI [2] | TGI [3] | TGI [4] | TGI [5] | TGI [6] | TGI [7] | TGI [8] | TGI [9] | TGI [10] | GI50 [1] | GI50 [3] | GI50 [4] | GI50 [5] | GI50 [7] | GI50 [10] | GI50 [2] | GI50 [8] | GI50 [9] |
| --- | --- | --- | --- | --- | --- | --- | --- | --- | --- | --- | --- | --- | --- | --- | --- | --- | --- | --- | --- |
| COc1ccc(CC(N)c2ccc(OC)cc2)cc1 (centres undefined) | > 100 µM | > 100 µM | > 100 µM | > 100 µM | > 100 µM | > 100 µM | > 100 µM | > 100 µM | > 100 µM | > 100 µM | – | – | – | – | – | – | – | – | – |
| CCNC(=S)N=Nc1c(O)[nH]c2ccc([N+](=O)[O-])cc12 | > 100 µM | > 100 µM | > 100 µM | > 100 µM | > 100 µM | > 100 µM | > 100 µM | > 100 µM | > 100 µM | 89.3 µM | – | – | – | – | – | – | – | – | – |
| CCOP(=O)(/C=C\n1cc(C)c(=O)[nH]c1=O)OCC | – | > 100 µM | > 100 µM | > 100 µM | > 100 µM | > 100 µM | > 100 µM | > 100 µM | > 100 µM | > 100 µM | – | – | – | – | – | – | – | – | – |
| Cc1ccc(S(=O)(=O)n2c3ccc(Br)cc3c3nc4ccccc4nc32)cc1 | > 100 µM | > 100 µM | > 100 µM | – | > 100 µM | > 100 µM | > 100 µM | > 100 µM | > 100 µM | > 100 µM | – | – | – | – | – | – | – | – | – |
| [Cl][Sn]([c]1ccccc1)([c]1ccccc1)[c]1ccccc1 | 23 µM | – | 1.07 µM and 0.24 µM and 0.129 µM | 0.968 µM | 0.414 µM and 0.146 µM and 0.0808 µM | – | 0.285 µM and 0.0456 µM | – | – | 0.523 µM and 0.159 µM | 0.378 µM | 0.314 µM and 0.113 µM and 0.0355 µM | 0.282 µM | 0.196 µM and 0.0263 µM and 0.0229 µM | 0.0815 µM and 0.0133 µM | 0.165 µM and 0.0456 µM | – | – | – |
| Cc1cccc(Nc2nn3c(=O)c4c5c(sc4nc3s2)CCCC5)c1 | > 100 µM | > 100 µM | > 100 µM | 68.7 µM | > 100 µM | 23.1 µM | 57.1 µM | > 100 µM | 5.92 µM | – | – | – | – | – | – | – | – | – | – |
| CCN(CC)N1C(=O)[N+](CC)(CC)N=C1[O-] | > 100 µM | – | > 100 µM | > 100 µM | > 100 µM | > 100 µM | > 100 µM | > 100 µM | > 100 µM | > 100 µM | – | – | – | – | – | – | – | – | – |
| O=c1cc(N2CCCC2)[nH]c(=O)n1Cc1ccccc1 | – | > 100 µM | > 100 µM | > 100 µM | > 100 µM | > 100 µM | > 100 µM | > 100 µM | – | – | – | – | – | – | – | – | – | – | – |
| COC(=O)C1CCC(=S)N1C(=O)c1ccccc1 (centres undefined) | > 100 µM | > 100 µM | > 100 µM | > 100 µM | > 100 µM | – | > 100 µM | > 100 µM | > 100 µM | > 100 µM | – | – | – | – | – | – | – | – | – |
| COP(=O)(OC)C(Cc1cn(C(C)=O)c2ccccc12)C(=O)O (centres undefined) | > 100 µM | > 100 µM | > 100 µM | – | > 100 µM | > 100 µM | > 100 µM | > 100 µM | – | > 100 µM | – | – | – | – | – | – | – | – | – |
| CCOc1ccc(N/C(=C(/C(Cl)=C(/Cl)N(CC)CC)[N+](=O)[O-])n2nnc3ccccc32)cc1 | > 100 µM | > 100 µM | > 100 µM | 49.4 µM | 41.4 µM | – | 35 µM | 32.7 µM | 28.8 µM | 73.5 µM | – | – | – | – | – | – | – | – | – |
| C=C/C(C)=C\CC1[C@](C)(O)CC[C@H]2C(C)(C)C(=O)CC[C@]12C (some centres undefined) | > 100 µM | > 100 µM | > 100 µM | – | > 100 µM | > 100 µM | > 100 µM | > 100 µM | > 100 µM | > 100 µM | – | – | – | – | – | – | – | – | – |
| CCOC(=O)c1nc2ccc(C(F)(F)F)cc2nc1Oc1cc(OC)c(OC)c(OC)c1 | 73.5 µM | > 100 µM | > 100 µM | > 100 µM | > 100 µM | > 100 µM | – | > 100 µM | > 100 µM | > 100 µM | – | – | – | – | – | – | – | – | – |
| CCNCCCn1c2c(c3ccc(Cl)cc3c1=O)C(=O)c1cc(OC)cnc1-2 | 4.31 µM | 32.9 µM | 2.66 µM | 20.3 µM | 4.54 µM | – | 2.47 µM | 3.22 µM | 21.4 µM | 4.38 µM | 1.74 µM | 0.585 µM | 0.813 µM | 1.92 µM | 0.539 µM | 0.358 µM | 14.5 µM | 0.694 µM | 0.532 µM |
| CC1CCCC2(CC[N+](C)(CCC[N+](C)(C)C)CC2)C1 (centres undefined) | > 100 µM | > 100 µM | > 100 µM | > 100 µM | > 100 µM | > 100 µM | – | > 100 µM | > 100 µM | > 100 µM | – | – | – | – | – | – | – | – | – |
| COc1ccc2c3c1OC1C(=O)C=CC4(CC2)N(C)CCC314 (centres undefined) | 92.5 µM | > 100 µM | 76.9 µM | 90.8 µM | 66.1 µM | > 100 µM | > 100 µM | > 100 µM | – | 58.7 µM | – | – | – | – | – | – | – | – | – |
| O=C1CCCCC/C1=C\c1ccc([N+](=O)[O-])cc1 | – | 54.9 µM | > 100 µM | 54.3 µM | > 100 µM | – | – | > 100 µM | > 100 µM | > 100 µM | – | – | – | – | – | – | – | – | – |
| C/C=C/c1cc(=O)c([C@@H]2OC(=O)c3cc(OC)cc(OC)c32)co1 | – | > 100 µM | > 100 µM | – | > 100 µM | – | > 100 µM | > 100 µM | > 100 µM | – | – | – | – | – | – | – | – | – | – |
| Cc1cc(S(=O)(=O)N/C(=C(\C#N)C(=O)c2ccc(Cl)cc2)[n+]2ccc(N(C)C)cc2)c([S-])cc1Cl | – | – | – | > 100 µM | > 100 µM | – | – | > 100 µM | > 100 µM | 56.6 µM | – | – | – | – | – | – | – | – | – |
| O=S(=O)(c1ccc(NC2=NC(c3ccc(O)cc3)(c3ccccc3O)c3ccccc32)cc1)c1ccc(NC2=NC(c3ccc(O)cc3)(c3ccccc3O)c3ccccc32)cc1 (centres undefined) | > 100 µM | > 47.9 µM | > 100 µM | – | > 28 µM | > 100 µM | 8.01 µM | > 40.7 µM | > 100 µM | 44.8 µM | – | – | – | – | – | – | – | – | – |
| O=C(NCCCCCCCCCCCCNC(=O)Nc1cccc2ccccc12)Nc1cccc2ccccc12 | 52.4 µM | – | 30.1 µM | 31.4 µM | 36.3 µM | 34.2 µM | 31.5 µM | 53.6 µM | 26.7 µM | 31.7 µM | – | – | – | – | – | – | – | – | – |
| NC(=O)NNc1nc(-c2ccccc2)cs1 | > 100 µM | > 100 µM | > 100 µM | > 100 µM | > 100 µM | > 100 µM | – | > 100 µM | > 100 µM | > 100 µM | – | – | – | – | – | – | – | – | – |
| Cc1ccc2c(=O)cc(-c3ccc(Cl)s3)[nH]c2n1 | > 22.9 µM | > 100 µM | > 100 µM | – | > 100 µM | > 100 µM | > 22.9 µM | > 53.8 µM | > 100 µM | > 100 µM | – | – | – | – | – | – | – | – | – |

Source: PubChem BioAssay (NCI)
